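Assay format: 96-well plates, 48-hour exposure. Definition used: TGI = concentration required for complete inhibition of growth.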 Where a SMILES comes first, the peptide text is derived from it. The star is where a group is joined. OBn = c1ccc(CO*)cc1
How the values were obtained:
Test in all cases: inhibition of tumour cell growth, NCI panel, 48 h
UACC-62 melanoma = test system: UACC-62 melanoma
M14 melanoma = test system: M14 melanoma
U251 CNS = test system: U251 CNS
OVCAR-3 ovarian = test system: OVCAR-3 ovarian
IGROV1 ovarian = test system: IGROV1 ovarian
SN12C renal = test system: SN12C renal
COLO 205 colon = test system: COLO 205 colon
OVCAR-5 ovarian = test system: OVCAR-5 ovarian
MOLT-4 leukemia = test system: MOLT-4 leukemia
SK-OV-3 ovarian = test system: SK-OV-3 ovarian

Row | Structure (SMILES) | TGI (UACC-62 melanoma) [µM] | TGI (M14 melanoma) [µM] | TGI (U251 CNS) [µM] | TGI (OVCAR-3 ovarian) [µM] | TGI (IGROV1 ovarian) [µM] | TGI (SN12C renal) [µM] | TGI (COLO 205 colon) [µM] | TGI (OVCAR-5 ovarian) [µM] | TGI (MOLT-4 leukemia) [µM] | TGI (SK-OV-3 ovarian) [µM]
1 | CC(Oc1ccc(Cl)cc1Cl)C(=O)NN1C(=O)CSC1c1ccc(Cl)cc1 (stereo not given) | > 100 | > 100 | > 100 | > 100 | > 100 | 37.8 | > 100 | > 100 | 80.1 | > 100
2 | C/C(=C\COP(=O)(O)OP(=O)(O)O)CC/C=C(\C)CNc1ccc([N+](=O)[O-])cc1 | > 100 | > 100 | > 100 | > 100 | > 100 | > 100 | > 100 | > 100 | > 100 | > 100
3 | CCn1c(SCC(=O)NNC(=S)Nc2ccc(F)cc2)nc2ccccc2c1=O | > 100 | > 100 | > 100 | > 100 | > 100 | > 100 | > 100 | > 100 | > 100 | > 100
4 | O=c1c2c3c(sc2nc2n1N=CN(c1ccc(Cl)cc1)C2)CCCC3 | > 100 | > 100 | > 100 | > 100 | > 100 | > 100 | > 100 | > 100 | > 100 | > 100
5 | CC1=[N+]([O-])C(C)(C)N(O)C1(C)C | > 100 | > 100 | > 100 | > 100 | > 100 | > 100 | > 100 | > 100 | > 100 | > 100
6 | C#C[C@]1(O)CC[C@H]2[C@@H]3CCC4=C/C(=N\OCCN5CCCC5)CC[C@]4(C)[C@H]3CC[C@@]21C | 27.5 | 22.5 | > 49.4 | 27.1 | 23.2 | 43.7 | 43.1 | 50.3 | 17.9 | 54.6
7 | CC(C)(C)C(=O)Nc1cccc(-c2ccc[nH]2)n1 | > 100 | > 100 | > 100 | > 100 | > 100 | > 100 | > 100 | > 100 | > 100 | > 100
8 | CC(C)(CCCCC(C)(C)NCC1COc2ccccc2O1)NCC1COc2ccccc2O1 (stereo not given) | 9.93 | 3.4 | > 10 | > 10 | > 10 | > 10 | 4.12 | > 10 | > 10 | > 10
9 | NC(CCC(=O)OCc1ccccc1)C(=O)NC(CCC(=O)OCc1ccccc1)C(=O)O (stereo not given) (H-Glu(OBn)-Glu(OBn)-OH; configuration not given here) | > 100 | > 100 | > 100 | > 100 | > 100 | > 100 | > 100 | > 100 | > 100 | > 100
10 | O=c1[nH]c(=O)n(C2CC(O)C(CO)O2)c2nc3ccc4ccccc4c3nc12 (stereo not given) | > 100 | > 100 | > 100 | > 100 | > 100 | > 100 | > 100 | > 100 | 54.3 | > 100
